The IC50 is the concentration that gives 50% inhibition.

The text below walks through data of patent publication US8778941B2, “TRPM8 antagonists and their use in treatments” (AMGEN Inc., priority 2011, dated 2014).

The assay addresses T1, human TRPM8 (Homo sapiens, UniProt Q7Z2W7).
T1 construct: expressed in transfected cells; host or cells: Chinese hamster ovary (CHO) cells, T-REx tetracycline-inducible expression system (Invitrogen), co-transfected with pcDNA3.1 jellyfish aequorin
The assay can be described thus: Luminescence readout assay for measuring intracellular calcium (aequorin), hTRPM8 antagonism. The class given is cell-based. The settings on record: CHO cell line expressing human TRPM8 and aequorin; activation by icilin, L-menthol or cold buffer (table does not say which). (Calcium flux is commonly read through the fluorescence of an indicator in the cells.)

T1 sequence (Q7Z2W7 whole entry): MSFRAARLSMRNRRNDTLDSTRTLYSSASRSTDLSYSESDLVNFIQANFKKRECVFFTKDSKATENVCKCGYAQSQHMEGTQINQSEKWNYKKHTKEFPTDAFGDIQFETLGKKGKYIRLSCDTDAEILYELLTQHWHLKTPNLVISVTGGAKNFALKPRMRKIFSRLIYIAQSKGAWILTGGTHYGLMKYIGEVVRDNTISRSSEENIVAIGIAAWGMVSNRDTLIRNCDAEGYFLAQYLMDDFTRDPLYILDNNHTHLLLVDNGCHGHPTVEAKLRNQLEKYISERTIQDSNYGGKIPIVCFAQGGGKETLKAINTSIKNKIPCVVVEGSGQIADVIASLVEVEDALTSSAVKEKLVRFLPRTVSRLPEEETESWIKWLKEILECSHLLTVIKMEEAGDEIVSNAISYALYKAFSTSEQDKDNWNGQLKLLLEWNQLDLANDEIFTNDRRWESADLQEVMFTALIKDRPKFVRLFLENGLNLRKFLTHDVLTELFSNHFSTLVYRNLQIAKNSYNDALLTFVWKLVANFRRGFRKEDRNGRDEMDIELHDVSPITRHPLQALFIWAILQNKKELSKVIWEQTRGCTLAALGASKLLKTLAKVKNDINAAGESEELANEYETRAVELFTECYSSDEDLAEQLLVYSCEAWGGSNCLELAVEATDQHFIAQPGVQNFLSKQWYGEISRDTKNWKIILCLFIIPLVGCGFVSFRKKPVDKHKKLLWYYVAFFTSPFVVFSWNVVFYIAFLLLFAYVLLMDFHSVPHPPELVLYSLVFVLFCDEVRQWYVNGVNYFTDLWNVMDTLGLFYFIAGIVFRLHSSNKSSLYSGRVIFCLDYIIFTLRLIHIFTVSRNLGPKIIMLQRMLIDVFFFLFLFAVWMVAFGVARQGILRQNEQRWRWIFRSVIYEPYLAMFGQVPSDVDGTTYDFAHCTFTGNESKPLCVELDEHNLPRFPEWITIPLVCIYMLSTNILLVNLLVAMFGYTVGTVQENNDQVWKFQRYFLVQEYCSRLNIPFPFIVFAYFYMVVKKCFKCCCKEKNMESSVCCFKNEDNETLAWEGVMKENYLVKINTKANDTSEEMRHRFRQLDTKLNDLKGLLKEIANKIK

As for `O=C(NC1CCN(C(=O)OCc2ccccc2)CC1)N[C@@H](c1ccc(C(F)(F)F)cc1)c1ncccc1C(F)(F)F` [Example 75, (S)-benzyl 4-(3-((4-(trifluoro-methyl)-phenyl)(3-(trifluoro-methyl)-pyridin-2-yl)-methyl)-ureido)-piperidine-1-carboxylate (2,2,2-trifluoro-acetate)], the IC50 came out at 0.67 µM. Take `O=C(Nc1cc(Cl)nc(Cl)c1)N[C@@H](c1ccc(C(F)(F)F)cc1)c1ncccc1C(F)(F)F` [Example 76, (S)-1-(2,6-dichloropyridin-4-yl)-3-((4-(trifluoro-methyl)-phenyl)(3-(trifluoro-methyl)-pyridin-2-yl)-methyl)urea (2,2,2-trifluoro-acetate)]: the IC50 came to 0.294 µM. With `Cc1nc(-c2cccc(NC(=O)N[C@@H](c3ccc(C(F)(F)F)cc3)c3ncccc3C(F)(F)F)c2)no1` [Example 77, (S)-1-(3-(5-methyl-1,2,4-oxadiazol-3-yl)phenyl)-3-((4-(trifluoro-methyl)-phenyl)(3-(trifluoro-methyl)-pyridin-2-yl)-methyl)urea (2,2,2-trifluoro-acetate)], the IC50 is 0.235 µM. Take `COC(=O)[C@H](CCSC)NC(=O)N[C@@H](c1ccc(C(F)(F)F)cc1)c1ncccc1C(F)(F)F` [Example 78, (S)-methyl 4-(methylthio)-2-(3-((S)-(4-(trifluoro-methyl)-phenyl)(3-(trifluoro-methyl)-pyridin-2-yl)-methyl)-ureido)-butanoate (2,2,2-trifluoro-acetate)]: the concentration for half-maximal inhibition (IC50) was found to be 1.23 µM. In the case of `COC(=O)[C@H](C)NC(=O)N[C@@H](c1ccc(C(F)(F)F)cc1)c1ncccc1C(F)(F)F` [Example 79, (S)-methyl-2-(3-((S)-(4-(trifluoro-methyl)-phenyl)(3-(trifluoro-methyl)-pyridin-2-yl)-methyl)-ureido)-propanoate (2,2,2-trifluoro-acetate)] it was 1.5 µM; in that of `COc1ccc([C@H](C)NC(=O)N[C@@H](c2ccc(C(F)(F)F)cc2)c2ncccc2C(F)(F)F)cc1` [Example 80, 1-((S)-1-(4-methoxy-phenyl)ethyl)-3-((S)-(4-(trifluoro-methyl)-phenyl)(3-(trifluoro-methyl)-pyridin-2-yl)-methyl)urea (2,2,2-trifluoro-acetate)], 0.399 µM; in that of `CCOC(=O)NC(=O)N[C@@H](c1ccc(C(F)(F)F)cc1)c1ncccc1C(F)(F)F` [Example 81], 0.496 µM.

As for `COc1cccc(CCNC(=O)N[C@@H](c2ccc(C(F)(F)F)cc2)c2ncccc2C(F)(F)F)c1OC` [Example 82, (S)-1-(2,3-dimethoxy-phenethyl)-3-((4-(trifluoro-methyl)-phenyl)(3-(trifluoro-methyl)-pyridin-2-yl)-methyl)urea (2,2,2-trifluoro-acetate)], the concentration for half-maximal inhibition (IC50) came to 0.559 µM. In the case of `CCCC[C@H](C)NC(=O)N[C@@H](c1ccc(C(F)(F)F)cc1)c1ncccc1C(F)(F)F` [Example 83, 1-((S)-hexan-2-yl)-3-((S)-(4-(trifluoro-methyl)-phenyl)(3-(trifluoro-methyl)-pyridin-2-yl)-methyl)urea (2,2,2-trifluoro-acetate)] it was 0.115 µM; in that of `COc1cccc([C@H](C)NC(=O)N[C@@H](c2ccc(C(F)(F)F)cc2)c2ncccc2C(F)(F)F)c1` [Example 84, 1-((S)-1-(3-methoxy-phenyl)ethyl)-3-((S)-(4-(trifluoro-methyl)-phenyl)(3-(trifluoro-methyl)-pyridin-2-yl)-methyl)urea (2,2,2-trifluoro-acetate)], 0.767 µM. Turning to `Cc1ccccc1CNC(=O)N[C@@H](c1ccc(C(F)(F)F)cc1)c1ncccc1C(F)(F)F` [Example 85, (S)-1-(2-methylbenzyl)-3-((4-(trifluoro-methyl)-phenyl)(3-(trifluoro-methyl)-pyridin-2-yl)-methyl)urea (2,2,2-trifluoro-acetate)], the IC50 came out at 0.405 µM.

Consider `CC(=O)c1cccc(NC(=O)N[C@@H](c2ccc(C(F)(F)F)cc2)c2ncccc2C(F)(F)F)c1` [Example 86, (S)-1-(3-acetylphenyl)-3-((4-(trifluoro-methyl)-phenyl)(3-(trifluoro-methyl)-pyridin-2-yl)-methyl)urea (2,2,2-trifluoro-acetate)], for which the IC50 came out at 0.031 µM. Turning to `O=C(NCc1ccccc1F)N[C@@H](c1ccc(C(F)(F)F)cc1)c1ncccc1C(F)(F)F` [Example 87, (S)-1-(2-fluorobenzyl)-3-((4-(trifluoro-methyl)-phenyl)(3-(trifluoro-methyl)-pyridin-2-yl)-methyl)urea (2,2,2-trifluoro-acetate)], the 50% inhibitory concentration (IC50) was found to be 0.199 µM. The value for `CCc1cccc(CC)c1NC(=O)N[C@@H](c1ccc(C(F)(F)F)cc1)c1ncccc1C(F)(F)F` [Example 88, (S)-1-(2,6-diethylphenyl)-3-((4-(trifluoro-methyl)-phenyl)(3-(trifluoro-methyl)-pyridin-2-yl)-methyl)urea (2,2,2-trifluoro-acetate)] was 0.108 µM; that for `CCc1cccc(C)c1NC(=O)N[C@@H](c1ccc(C(F)(F)F)cc1)c1ncccc1C(F)(F)F` [Example 89, (S)-1-(2-ethyl-6-methylphenyl)-3-((4-(trifluoro-methyl)-phenyl)(3-(trifluoro-methyl)-pyridin-2-yl)-methyl)urea (2,2,2-trifluoro-acetate)] was 0.33 µM. The value for `CCOC(=O)c1cccc(NC(=O)N[C@@H](c2ccc(C(F)(F)F)cc2)c2ncccc2C(F)(F)F)c1` [Example 90, (S)-ethyl 3-(3-((4-(trifluoro-methyl)-phenyl)(3-(trifluoro-methyl)-pyridin-2-yl)-methyl)-ureido)-benzoate (2,2,2-trifluoro-acetate)] was 0.646 µM; that for `CCc1cccc(C(C)C)c1NC(=O)N[C@@H](c1ccc(C(F)(F)F)cc1)c1ncccc1C(F)(F)F` [Example 91, (S)-1-(2-ethyl-6-isopropylphenyl)-3-((4-(trifluoro-methyl)-phenyl)(3-(trifluoro-methyl)-pyridin-2-yl)-methyl)urea (2,2,2-trifluoro-acetate)] was 0.67 µM. The value for `Cc1cccc(C(C)C)c1NC(=O)N[C@@H](c1ccc(C(F)(F)F)cc1)c1ncccc1C(F)(F)F` [Example 92, (S)-1-(2-isopropyl-6-methylphenyl)-3-((4-(trifluoro-methyl)-phenyl)(3-(trifluoro-methyl)-pyridin-2-yl)-methyl)urea (2,2,2-trifluoro-acetate)] was 0.713 µM; that for `COc1cc(CCNC(=O)N[C@@H](c2ccc(C(F)(F)F)cc2)c2ncccc2C(F)(F)F)cc(OC)c1` [Example 93, (S)-1-(3,5-dimethoxy-phenethyl)-3-((4-(trifluoro-methyl)-phenyl)(3-(trifluoro-methyl)-pyridin-2-yl)-methyl)urea (2,2,2-trifluoro-acetate)] was 1.44 µM. Consider `CCOC(=O)[C@H](C)NC(=O)N[C@@H](c1ccc(C(F)(F)F)cc1)c1ncccc1C(F)(F)F` [Example 94, (S)-ethyl 2-(3-((S)-(4-(trifluoro-methyl)-phenyl)(3-(trifluoro-methyl)-pyridin-2-yl)-ureido)-propanoate (2,2,2-trifluoro-acetate)], for which the half-inhibitory concentration (IC50) stood at 1.71 µM. As to `COc1ccc(CCNC(=O)N[C@@H](c2ccc(C(F)(F)F)cc2)c2ncccc2C(F)(F)F)cc1OC` [Example 95, (S)-1-(3,4-dimethoxy-phenethyl)-3-((4-(trifluoro-methyl)-phenyl)(3-(trifluoro-methyl)-pyridin-2-yl)-methyyl)urea (2,2,2-trifluoro-acetate)], the concentration for half-maximal inhibition (IC50) was determined as 1.92 µM. Consider `COC(=O)[C@@H](NC(=O)N[C@@H](c1ccc(C(F)(F)F)cc1)c1ncccc1C(F)(F)F)C(C)C` [Example 96, (S)-methyl 3-(methyl-2-(3-((S)-(4-(trifluoro-methyl)-phenyl)(3-(trifluoro-methyl)-pyridin-2-yl)-methyl)-ureido)-butanoate (2,2,2-trifluoro-acetate)], for which the half-inhibitory concentration (IC50) came out at 0.884 µM. Consider `N#Cc1cccc(NC(=O)N[C@@H](c2ccc(C(F)(F)F)cc2)c2ncccc2C(F)(F)F)c1` [Example 97, (S)-1-(3-cyanophenyl)-3-((4-(trifluoro-methyl)-phenyl)(3-(trifluoro-methyl)-pyridin-2-yl)-methyl)urea (2,2,2-trifluoro-acetate)], for which the IC50 came out at 0.08 µM. In the case of `CCOC(=O)C(NC(=O)N[C@@H](c1ccc(C(F)(F)F)cc1)c1ncccc1C(F)(F)F)C(C)C` (stereo partly drawn) [Example 98, ethyl 3-methyl-2-(3-((S)-(4-(trifluoro-methyl)-phenyl)(3-(trifluoro-methyl)-pyridin-2-yl)-methyl)-ureido)-butanoate (2,2,2-trifluoro-acetate)], the IC50 was determined as 2.22 µM. Regarding `CC[C@H](C)C(NC(=O)N[C@@H](c1ccc(C(F)(F)F)cc1)c1ncccc1C(F)(F)F)C(=O)OC` (stereo partly drawn) [Example 99, (3S)-methyl 3-methyl-2-(3-((S)-(4-(trifluoro-methyl)-phenyl)(3-(trifluoro-methyl)-pyridin-2-yl)-methyl)-ureido)-pentanoate (2,2,2-trifluoro-acetate)], the IC50 came out at 0.712 µM. In the case of `O=C(Nc1cccc([N+](=O)[O-])c1)N[C@@H](c1ccc(C(F)(F)F)cc1)c1ncccc1C(F)(F)F` [Example 100, (S)-1-(3-nitrophenyl)-3-((4-(trifluoro-methyl)-phenyl)(3-(trifluoro-methyl)-pyridin-2-yl)-methyl)urea (2,2,2-trifluoro-acetate)], the IC50 amounted to 0.142 µM. As for `CC(NC(=O)N[C@@H](c1ccc(C(F)(F)F)cc1)c1ncccc1C(F)(F)F)c1ccc(Br)cc1` (stereo partly drawn) [Example 101, 1-(1-(4-bromophenyl)-ethyl)-3-((S)-(4-(trifluoro-methyl)-phenyl)(3-(trifluoro-methyl)-pyridin-2-yl)-methyl)urea (2,2,2-trifluoro-acetate)], the IC50 was determined as 0.633 µM. Take `COC(=O)c1cccc(NC(=O)N[C@@H](c2ccc(C(F)(F)F)cc2)c2ncccc2C(F)(F)F)c1` [Example 102, (S)-methyl 3-(3-((4-(trifluoro-methyl)-phenyl)(3-(trifluoro-methyl)-pyridin-2-yl)-methyl)-ureido)-benzoate (2,2,2-trifluoro-acetate)]: the concentration for half-maximal inhibition (IC50) is 0.262 µM.
